Assay results as given in US10206394B2, “Herbicidal compounds” (Syngenta Participations AG, priority 2014, dated 2019).
Where two headings read alike, the source gives them in different places.

Experiments:
Format in all cases: in vivo
[1] = tested on: Winter Wheat variety 'Hereward'; experiment: Glasshouse assay for crop safety, post-emergence, +/- safener cloquintocet-mexyl (CQC), percentage phytotoxicity; conditions: 250 g/ha, evaluated after 13 days, 100=total damage, 0=no damage; for Post-emergence Crop Selectivity, percentage phytotoxicity, Wheat +CQC: with safener cloquintocet-mexyl (CQC) seed treatment 0.5 g/kg seed; for Post-emergence Crop Selectivity, percentage phytotoxicity, Wheat − CQC: without safener cloquintocet-mexyl (CQC)
From the text: Test—Glasshouse Assay for Crop Safety.
Seeds of the Winter Wheat variety ‘Hereward’ were seed treated with a wettable powder formulation of the cereal herbicide safener, cloquintocet mexyl, at a rate of 0.5 grams per kilogram of dry seed prior to the initiation of glasshouse testing. Three seeds were sown per 1.5 inch plastic pot into a sandy loam soil at a depth of 1 cm, 8 days prior to application of the test compounds and was watered and grown under controlled conditions in a glasshouse (at 24/16° C., day/night; 14 hours light; 65% humidity). The plants were sprayed Post-emergence with an aqueous spray solution derived from the formulation of the technical active ingredient in acetone/water (50:50) solution containing 0.5% Tween 20 (polyoxyethelyene sorbitan monolaurate, CAS RN 9005-64-5).
The test plants were then grown in a glasshouse under controlled conditions (at 24/16° C., day/night; 14 hours light; 65% humidity) and watered twice daily. After 13 days for pre and post-emergence, the test was evaluated (100=total damage to plant; 0=no damage to plant).

Avena fatua (AVEFA) = experiment: Glasshouse assay for herbicidal activity (pre- and post-emergence), percentage phytotoxicity; conditions: Avena fatua, Rate 250 g/ha, 100%=total damage, 0%=no damage
Summary of the method: (§1)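 Potted test plants in standard soil received the compound pre-emergence (day 1) or post-emergence (about day 12). Evaluation: visual damage score from 0% (none) to 100% (total), 15 days after application post-emergence, 20 days pre-emergence.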

Lolium perenne (LOLPE) = experiment: as above; conditions: Lolium perenne, Rate 250 g/ha, 100%=total damage, 0%=no damage
Summary of the method: as §1

[2] = tested on: Echinochloa crus-galli (ECHCG); experiment: as above; conditions: Echinochloa crus-galli, Rate 250 g/ha, 100%=total damage, 0%=no damage
Summary of the method: as §1

[3] = tested on: Alopecurus myosuroides (ALOMY); experiment: as above; conditions: Alopecurus myosuroides, Rate 250 g/ha, 100%=total damage, 0%=no damage
Summary of the method: as §1

[4] = post-emergence, 360 h, post-emergence, assessed visually 15 DAA, read-out: Post-emergence herbicidal activity (percentage phytotoxicity) AVEFA POST
[5] = pre-emergence, 480 h, pre-emergence, assessed visually 20 DAA, read-out: Pre-emergence herbicidal activity (percentage phytotoxicity) AVEFA PRE
[6] = post-emergence, 360 h, post-emergence, assessed visually 15 DAA, read-out: Post-emergence herbicidal activity (percentage phytotoxicity) LOLPE POST
[7] = pre-emergence, 480 h, pre-emergence, assessed visually 20 DAA, read-out: Pre-emergence herbicidal activity (percentage phytotoxicity) LOLPE PRE
[8] = post-emergence, 360 h, post-emergence, assessed visually 15 DAA, read-out: Post-emergence herbicidal activity (percentage phytotoxicity) ECHCG POST
[9] = pre-emergence, 480 h, pre-emergence, assessed visually 20 DAA, read-out: Pre-emergence herbicidal activity (percentage phytotoxicity) ECHCG PRE
[10] = post-emergence, 360 h, post-emergence, assessed visually 15 DAA, read-out: Post-emergence herbicidal activity (percentage phytotoxicity) ALOMY POST
[11] = pre-emergence, 480 h, pre-emergence, assessed visually 20 DAA, read-out: Pre-emergence herbicidal activity (percentage phytotoxicity) ALOMY PRE

SMILES | Post-emergence Crop Selectivity, percentage phytotoxicity, Wheat +CQC [1] | Post-emergence Crop Selectivity, percentage phytotoxicity, Wheat − CQC [1] | pest or weed control at 250 g/ha (Avena fatua (AVEFA); [4]) | pest or weed control at 250 g/ha (Avena fatua (AVEFA); [5]) | pest or weed control at 250 g/ha (Lolium perenne (LOLPE); [6]) | pest or weed control at 250 g/ha (Lolium perenne (LOLPE); [7]) | pest or weed control at 250 g/ha [2, 8] | pest or weed control at 250 g/ha [2, 9] | pest or weed control at 250 g/ha [3, 10] | pest or weed control at 250 g/ha [3, 11]
CCCN(C)C(=O)CC1CC(=O)C(c2c(C)cc(C)cc2C)C1=O (stereo not shown) [Compound A25] | 0% | 40% | 70% | 70% | 90% | 90% | 90% | 80% | 70% | 70%
CCCNC(=O)CC1CC(=O)C(c2c(C)cc(C)cc2C)C1=O (stereo not shown) [Compound A26] | 40% | 70% | 80% | 70% | 90% | 100% | 80% | 80% | 80% | 80%
CCC(C)(C)NC(=O)CC1CC(=O)C(c2c(C)cc(C)cc2C)C1=O (stereo not shown) [Compound A27] | 20% | 30% | 80% | 70% | 80% | 80% | 80% | 80% | 80% | 70%
Cc1cc(-c2ncc(Cl)cc2F)cc(C)c1C1C(=O)CC(CC(=O)NC(C)(C)C)C1=O (stereo not shown) [Compound A39, N-tert-butyl-2-[3-[4-(5-chloro-3-fluoro-2-pyridyl)-2,6-dimethyl-phenyl]-2,4-dioxo-cyclopentyl]acetamide] | 50% | 80% | 100% | 100% | 100% | 100% | 100% | 100% | 100% | 100%
C#Cc1cc(C)c(C2C(=O)CC(CC(=O)NC(C)(C)C)C2=O)c(C)c1 (stereo not shown) [Compound A43] | 50% | 90% | 90% | 100% | 90% | 100% | 90% | 100% | 100% | 100%
CC#Cc1cc(C)c(C2C(=O)CC(CC(=O)NCC(=O)C(C)(C)C)C2=O)c(C)c1 (stereo not shown) [Compound A59] | 50% | 80% | 90% | 70% | 70% | 70% | 90% | 90% | 90% | 100%
Cc1cc(-n2cc(Cl)cn2)cc(C)c1C1C(=O)CC(CC(=O)NC(C)(C)C)C1=O (stereo not shown) [Compound A67, N-tert-butyl-2-[3-[4-(4-chloropyrazol-1-yl)-2,6-dimethyl-phenyl]-2,4-dioxo-cyclopentyl]acetamide] | 0% | 70% | 80% | 90% | 70% | 90% | 100% | 90% | 80% | 100%
